{"source": "paper PMC5154303", "about": "“Flavonol and imidazole derivatives block HPV16 E6 activities and reactivate apoptotic pathways in HPV^+ cells” (Cell Death & Disease, 2016)", "format_in_all_cases": "cell-based, human", "key": {"UMSCC47": {"tested_on": "UMSCC47", "assay": "TRAIL-induced cell death in HPV+ HNSCC line UMSCC47 (MTT)", "conditions": "HPV+ #47, 40 μM compound 4 h, 50 ng/ml TRAIL + cycloheximide", "procedure": "(§1) Figure 7 Myricetin and spinacine (5) can re-sensitize HPV^+, but not HPV^−, head and neck cancer cell lines to treatment with TRAIL. (a) Both HPV^− and HPV^+ HN cancer cell lines display resistance to TRAIL treatment. (b) HPV^− (UMSCC 29 and SCC 84) and (c) HPV^+ (UMSCC 47, UPCI-SCC90-UP-Clone 35, and UM-SCC47-TC-Clone 3) head and neck cancer cell lines (2 × 10^4 cells per well) were seeded into 96-well plates and allowed to incubate overnight, and then cells were pretreated with myricetin (0–200 μM) or spinacine (0–100 μM) for 4 h. […] Cell viability was measured by the MTT assay, and the viability of cells untreated with small molecules was set at 100%. Experiments were performed in triplicate, and error bars indicate the S.D.\n(§2) The extracellular domain of human TRAIL was cloned into a pTriEx expression plasmid containing N-terminal Hisx6 tag. His-TRAIL was expressed in the E. coli BL-21 pLys strain and purified as previously described. Doxorubicin and cisplatin were purchased from Sigma. His-TRAIL, doxorubicin, and cisplatin were diluted in PBS to the desired concentration before using. […] All experiments were repeated at least three times (three biological replicates, carried out on different days), with each experimental group measured in triplicate within each of these individual experiments. […]"}, "SiHa cells [1]": {"tested_on": "SiHa cells", "assay": "Sensitization of SiHa cells to doxorubicin (MTT)", "conditions": "100 μM myricetin or 50 μM spinacine 4 h prior to doxorubicin, versus negative control", "procedure": "(§3) Figure 3 (a) HPV^+ SiHa cells are resistant to TRAIL-induced apoptosis as compared with the human osteosarcoma cell line U2OS. Cells (2 × 10^4 cells per well) were seeded into a 96-well plate, allowed to incubate overnight, and then treated with the indicated concentration of TRAIL in the presence of cycloheximide (5 μg/ml). The viability of cells was measured after overnight incubation using the MTT assay; the viability of cells untreated with TRAIL was set at 100% for each group. (b) The indicated concentrations of three small molecules were added to SiHa cells, and an MTT assay was preformed after overnight incubation. The viability of cells untreated with small molecules was set as 100%. (c) The indicated concentrations of myricetin or spinacine were added 4 h prior to TRAIL (100 ng/ml) in the presence of cycloheximide (5 μg/ml) and incubated at 37 °C overnight. […] Cell viability was measured after overnight incubation using the MTT assay, and the viability of cells untreated with either myricetin or spinacine was set at 100%. […]\n(§4) The extracellular domain of human TRAIL was cloned into a pTriEx expression plasmid containing N-terminal Hisx6 tag. […] All experiments were repeated at least three times (three biological replicates, carried out on different days), with each experimental group measured in triplicate within each of these individual experiments. […]"}, "UM-SCC47-TC-Clone 3": {"tested_on": "UM-SCC47-TC-Clone 3", "assay": "TRAIL-induced cell death in HPV+ HNSCC line UM-SCC47-TC-Clone 3 (MTT)", "conditions": "HPV+ 47CL3, 40 μM compound 4 h, 50 ng/ml TRAIL + cycloheximide", "procedure": "as §1, §2"}, "UPCI-SCC90-UP-Clone 35": {"tested_on": "UPCI-SCC90-UP-Clone 35", "assay": "TRAIL-induced cell death in HPV+ HNSCC line UPCI-SCC90-UP-Clone 35 (MTT)", "conditions": "HPV+ #90, 40 μM compound 4 h, 50 ng/ml TRAIL + cycloheximide", "procedure": "as §1, §2"}, "SiHa cells [2]": {"tested_on": "SiHa cells", "assay": "Sensitization of SiHa cells to cisplatin (MTT)", "conditions": "100 μM myricetin or 50 μM spinacine 4 h prior to cisplatin, versus negative control", "procedure": "as §3, §4"}, "caspase 3/7": {"tested_on": "caspase 3/7", "assay": "Caspase 3/7 activity assay in SiHa cells", "conditions": "100 μM myricetin or 50 μM spinacine 4 h, then TRAIL 100 ng/ml + cycloheximide, 0–6 h, versus controls", "procedure": "Figure 4 Myricetin and spinacine (5) increase caspase 3/7 activity in SiHa cells following treatment with TRAIL and chemotherapy drugs. SiHa cells (2 × 10^4 cells per well) were seeded into a 96-well plate and allowed to incubate overnight and then pretreated with 100 μM of myricetin or 50 μM of spinacine for 4 h. (a) TRAIL (100 ng/ml), along with cycloheximide (5 μg/ml), (b) cisplatin (50 μM), or (c) doxorubicin (2 μM) were added respectively. Caspase 3/7 activity was measured after 0, 1.5, 3, and 6 h using the CellTiter-Glo assay. Activity at 0 h of treatment was set at 100% for each group. Experiments were performed in triplicate, and error bars indicate the S.D.\nCells were plated into 96-well plates at a density of 2 × 10^4 cells per well and incubated overnight. Small molecules were then added and incubated at 37 °C for 4 h. TRAIL (100 ng/ml), cisplatin (50 μM), and doxorubicin (2 μM) were then added. […] Caspase 3/7 activity was measured using the flourogenic substrate CellTitier-Glo for caspase 3/7 activity (Promega, Fitchburg, WI, USA) following the manufacturer's instructions. […] After a 10-min incubation, the released fluorophore was measured using a plate-reading fluorimeter (Flx800, Bio-Tek Instrument Co., Winooski, VT, USA). […] The resulting difference was expressed as a percentage of the caspase activity of the untreated cells."}}, "data": [{"smiles": "O=C(O)C1Cc2[nH]cnc2CN1", "note": "(stereo not drawn) [Spinacine (5), 4,5,6,7-tetrahydro-1H-imidazo[4,5–c]pyridine-6-carboxylic acid]", "values": [{"measurement": "enhancement of TRAIL-induced cell death", "setting": "UMSCC47", "result": "up to 50%"}, {"measurement": "sensitivity of SiHa cells to doxorubicin", "setting": "SiHa cells [1]", "result": "increased the sensitivity"}, {"measurement": "enhancement of TRAIL-induced cell death", "setting": "UM-SCC47-TC-Clone 3", "result": "~60", "unit": "%"}, {"measurement": "enhancement of TRAIL-induced cell death", "setting": "UPCI-SCC90-UP-Clone 35", "result": "up to 50%"}, {"measurement": "sensitivity of SiHa cells to cisplatin", "setting": "SiHa cells [2]", "result": "increased the sensitivity"}, {"measurement": "caspase 3/7 activity in combination with TRAIL", "setting": "caspase 3/7", "result": "increased"}]}, {"smiles": "O=c1c(O)c(-c2cc(O)c(O)c(O)c2)oc2cc(O)cc(O)c12", "note": "[Myricetin, myricetin, reference compound]", "values": [{"measurement": "enhancement of TRAIL-induced cell death", "setting": "UMSCC47", "result": 40, "unit": "%"}, {"measurement": "sensitivity of SiHa cells to doxorubicin", "setting": "SiHa cells [1]", "result": "increased the sensitivity"}, {"measurement": "enhancement of TRAIL-induced cell death", "setting": "UM-SCC47-TC-Clone 3", "result": 70, "unit": "%"}, {"measurement": "enhancement of TRAIL-induced cell death", "setting": "UPCI-SCC90-UP-Clone 35", "result": 30, "unit": "%"}, {"measurement": "sensitivity of SiHa cells to cisplatin", "setting": "SiHa cells [2]", "result": "increased the sensitivity"}, {"measurement": "caspase 3/7 activity in combination with TRAIL", "setting": "caspase 3/7", "result": "increased"}]}]}
